Reference: patent publication US10472385B2, “Triterpene-glycosides as sweeteners or sweetener enhancers” (priority 2013, dated 2019)

Test system: panel of 4 panelists (sweet taste)
Test: Organoleptic test of the compounds of formula (I) against sucrose and mogroside V
Format: in vivo
Parameters: key: 3 = sweeter than control, 1 = less sweet than control but still sweet
Details: compound 0.4 mg/ml (400 ppm) in non-carbonated mineral water; for Organoleptic evaluation compared to mogroside V*: control solution mogroside V 0.1 mg/ml (100 ppm); for Organoleptic evaluation compared to sucrose*: control solution sucrose 20 mg/ml
Protocol: Organoleptic Test of the Compounds of Formula (I) Against Sucrose and Mogroside V
The isolated pure compounds were dissolved in non-carbonated mineral water (“Fonsana Quelle”) in a concentration of 0.4 mg/ml (400 ppm). The sweet taste of each sample was compared by a panel of 4 panelists with a solution of sucrose in a concentration of 20 mg/ml and with a solution of the known sweetener mogroside V (isolated by AnalytiCon from Momordica grosvenori) in a concentration of 0.1 mg/ml (100 ppm).
The sweetness was evaluated as follows:
3=sweeter than the control solution
1=less sweet than the control solution but still sweet

For `C[C@H](CC[C@@H](O[C@@H]1O[C@H](CO[C@@H]2O[C@H](CO)[C@@H](O)[C@H](O)[C@H]2O)[C@@H](O)[C@H](O)[C@H]1O[C@@H]1O[C@H](CO)[C@@H](O)[C@H](O)[C@H]1O)C(C)(C)O)[C@H]1CC[C@@]2(C)[C@@H]3CC=C4C(CC[C@H](O[C@@H]5O[C@H](CO)[C@@H](O)[C@H](O)[C@H]5O)C4(C)C)[C@]3(C)CC[C@]12C` (stereo partly shown) [Compound Ee], the “Organoleptic evaluation compared to mogroside V*” value was 3 and the “Organoleptic evaluation compared to sucrose*” value was 3.

With `C[C@H](CC[C@@H](O[C@@H]1O[C@H](CO)[C@@H](O)[C@H](O)[C@H]1O[C@@H]1O[C@H](CO)[C@@H](O)[C@H](O)[C@H]1O)C(C)(C)O)[C@H]1CC[C@@]2(C)[C@@H]3CC=C4C(CC[C@H](O)C4(C)C)[C@]3(C)[C@H](O)C[C@]12C` (stereo partly drawn) [Compound Aa, (2S,3R,4S,5S,6R)-2-((2S,3R,4S,5S,6R)-2-((3R,6R)-6-((3S,8S,9R,11R,13R,14S,17R)-3,11-dihydroxy-4,4,9,13,14-pentamethyl-2,3,4,7,8,9,10,11,12,13,14,15,16,17-tetradecahydro-1H-cyclopenta[a]phenanthren-17-yl)-2-hydroxy-2-methylheptan-3-yloxy)-4,5-dihydroxy-6-(hydroxymethyl)tetrahydro-2H-pyran-3-yloxy)-6-(hydroxymethyl)tetrahydro-2H-pyran-3,4,5-triol] the “Organoleptic evaluation compared to mogroside V*” value was 2 and the “Organoleptic evaluation compared to sucrose*” value was 3.

In the case of `C[C@H](CC[C@@H](O[C@@H]1O[C@H](CO[C@@H]2O[C@H](CO)[C@@H](O)[C@H](O)[C@H]2O)[C@@H](O)[C@H](O)[C@H]1O[C@@H]1O[C@H](CO)[C@@H](O)[C@H](O)[C@H]1O)C(C)(C)O)[C@H]1CC[C@@]2(C)C3CC=C4[C@@H](CCC(=O)C4(C)C)[C@]3(C)[C@H](O)C[C@]12C` (stereo partly shown) [Compound Jj], the “Organoleptic evaluation compared to mogroside V*” value is reported as 2 and the “Organoleptic evaluation compared to sucrose*” value is reported as 3.

For `C[C@H](CC[C@@H](O[C@@H]1O[C@H](CO[C@@H]2O[C@H](CO)[C@@H](O)[C@H](O)[C@H]2O)[C@@H](O)[C@H](O)[C@H]1O[C@@H]1O[C@H](CO)[C@@H](O)[C@H](O)[C@H]1O)C(C)(C)O)[C@H]1CC[C@@]2(C)C3CC=C4[C@@H](CC[C@H](O[C@@H]5O[C@H](CO)[C@@H](O)[C@H](O)[C@H]5O)C4(C)C)[C@]3(C)C(=O)C[C@]12C` (stereo partly shown) [Compound Ll], the “Organoleptic evaluation compared to mogroside V*” value was 3 and the “Organoleptic evaluation compared to sucrose*” value was 3.

With `C[C@H](CC[C@@H](O[C@@H]1O[C@H](CO[C@@H]2O[C@H](CO)[C@@H](O)[C@H](O)[C@H]2O)[C@@H](O)[C@H](O)[C@H]1O[C@@H]1O[C@H](CO)[C@@H](O)[C@H](O)[C@H]1O)C(C)(C)O)[C@H]1CC[C@@]2(C)C3CC=C4C(CC[C@H](O[C@@H]5O[C@H](CO)[C@@H](O[C@@H]6O[C@H](CO)[C@@H](O)[C@H](O)[C@H]6O)[C@H](O)[C@H]5O)C4(C)C)[C@]3(C)CC[C@]12C` (stereo partly shown) [Compound Cc] the “Organoleptic evaluation compared to mogroside V*” value was 3 and the “Organoleptic evaluation compared to sucrose*” value was 3.

`C[C@H](CC[C@@H](O[C@@H]1O[C@H](CO[C@@H]2O[C@H](CO)[C@@H](O)[C@H](O)[C@H]2O)[C@@H](O)[C@H](O)[C@H]1O[C@@H]1O[C@H](CO)[C@@H](O)[C@H](O)[C@H]1O)C(C)(C)O)[C@H]1CC[C@@]2(C)C3CC=C4[C@@H](CC[C@H](O)C4(C)C)[C@]3(C)CC[C@]12C` (stereo partly shown) [Compound Kk] was tested, and the “Organoleptic evaluation compared to mogroside V*” value was 1 and the “Organoleptic evaluation compared to sucrose*” value was 2.

`C[C@H](CC[C@@H](O[C@@H]1O[C@H](CO[C@@H]2O[C@H](CO)[C@@H](O)[C@H](O)[C@H]2O)[C@@H](O)[C@H](O)[C@H]1O[C@@H]1O[C@H](CO)[C@@H](O)[C@H](O)[C@H]1O)C(C)(C)O)[C@H]1CC[C@@]2(C)[C@@H]3CC=C4[C@@H](CC[C@H](O[C@@H]5O[C@H](CO)[C@@H](O)[C@H](O)[C@H]5O[C@@H]5O[C@H](CO)[C@@H](O)[C@H](O)[C@H]5O)C4(C)C)[C@]3(C)[C@H](O)C[C@]12C` [Compound Ff] was tested, and the “Organoleptic evaluation compared to mogroside V*” value was 2 and the “Organoleptic evaluation compared to sucrose*” value was 3.

With `C[C@H](CC[C@@H](O[C@@H]1O[C@H](CO[C@@H]2O[C@H](CO)[C@@H](O)[C@H](O)[C@H]2O)[C@@H](O)[C@H](O)[C@H]1O[C@@H]1O[C@H](CO)[C@@H](O)[C@H](O)[C@H]1O)C(C)(C)O)[C@H]1CC[C@@]2(C)C3CC=C4[C@@H](CC[C@H](O[C@@H]5O[C@H](CO)[C@@H](O)[C@H](O)[C@H]5O)C4(C)C)[C@]3(C)CC[C@]12C` (stereo partly shown) [Compound Mm] the “Organoleptic evaluation compared to mogroside V*” value was 3 and the “Organoleptic evaluation compared to sucrose*” value was 3.

In the case of `C[C@H](CC[C@@H](O[C@@H]1O[C@H](CO[C@@H]2O[C@H](CO)[C@@H](O)[C@H](O)[C@H]2O)[C@@H](O)[C@H](O)[C@H]1O[C@@H]1O[C@H](CO)[C@@H](O)[C@H](O)[C@H]1O)C(C)(C)O)[C@H]1CC[C@@]2(C)[C@@H]3CC=C4C(CC[C@H](O[C@@H]5O[C@H](CO)[C@@H](O)[C@H](O)[C@H]5O[C@@H]5O[C@H](CO)[C@@H](O)[C@H](O)[C@H]5O)C4(C)C)[C@]3(C)CC[C@]12C` (stereo partly shown) [Compound Dd], the “Organoleptic evaluation compared to mogroside V*” value is reported as 3 and the “Organoleptic evaluation compared to sucrose*” value is reported as 3.

In the case of `C[C@H](CC[C@@H](O[C@@H]1O[C@H](CO)[C@@H](O)[C@H](O)[C@H]1O[C@@H]1O[C@H](CO)[C@@H](O)[C@H](O)[C@H]1O)C(C)(C)O)[C@H]1CC[C@@]2(C)C3CC=C4C(CC[C@H](O[C@@H]5O[C@H](CO)[C@@H](O)[C@H](O)[C@H]5O)C4(C)C)[C@]3(C)CC[C@]12C` (stereo partly shown) [Compound Gg], the “Organoleptic evaluation compared to mogroside V*” value is reported as 3 and the “Organoleptic evaluation compared to sucrose*” value is reported as 3.

For `C[C@H](CCC(=O)C(C)(C)O)[C@H]1CC[C@@]2(C)C3CC=C4[C@@H](CC[C@H](O[C@@H]5O[C@H](CO[C@@H]6O[C@H](CO)[C@@H](O)[C@H](O)[C@H]6O)[C@@H](O)[C@H](O)[C@H]5O)C4(C)C)[C@]3(C)[C@H](O)C[C@]12C` (stereo partly drawn) [Compound Hh, (6R)-2-hydroxy-6-((3S,9R,10R,11R,13R,14S,17R)-11-hydroxy-4,4,9,13,14-pentamethyl-3-((2R,3R,4S,5S,6R)-3,4,5-trihydroxy-6-(((2R,3R,4S,5S,6R)-3,4,5-trihydroxy-6-(hydroxymethyl)tetrahydro-2H-pyran-2-yloxy)methyl)tetrahydro-2H-pyran-2-yloxy)-2,3,4,7,8,9,10,11,12,13,14,15,16,17-tetradecahydro-1H-cyclopenta[a]phenanthren-17-yl)-2-methylheptan-3-one], the “Organoleptic evaluation compared to mogroside V*” value was 1 and the “Organoleptic evaluation compared to sucrose*” value was 2.
